This data set is described as follows: Numerical particle size distribution by microscopical image analysis of brinzolamide suspensions made by different homogenization techniques (Example 1). The format is physicochemical. The note with it: suspension in 0.05% Polysorbate 80, prior to treatment. The procedure:
Preferably, particle size analyses and particle size distributions of the suspension are obtained by microscopy using a particle size analyser (preferably by following US Pharmacopeia 29 <776>—Optical Microscopy).
In Examples 1.1, 1.2 and 1.3, brinzolamide ophthalmic suspensions were prepared by using three different homogenization techniques (high pressure homogenization in accordance with the present invention, high shear homogenization and ball milling) in order to test the effectiveness these techniques on de-agglomeration of brinzolamide particles and coating of the particles with wetting agent. Three different wetting agents were used (Polysorbate 80, Poloxamer 407 and Tyloxapol). Particle size analyses were conducted by microscopy.
Portions of the suspension were treated separately by the following three methods (i)-(iii): • (i) high pressure homogenization (5000 psi/5 cycles using Microfluidizer® high pressure homogenizer) • (ii) high shear homogenization (8000 rpm/120 minutes (Ultra-Turrax high shear mixer) • (iii) ball milling (8.5 hours at 22-24 rpm (tumble blender; Zirconox beads: 0.7-1.2 mm)

The structures appear in SMILES notation.

Consider `CCN[C@H]1CN(CCCOC)S(=O)(=O)c2sc(S(N)(=O)=O)cc21` [brinzolamide], for which the “particle size distribution of the individual brinzolamide particles, d90” value is given as not above 3.0 μm and the “particle size of agglomerates of brinzolamide” value is “greater than 10 μm”.

Values taken from patent US20130065888A1, “OPHTHALMIC FORMULATIONS AND PROCESSES FOR THEIR PREPARATION” (priority 2011, published 2013).
